# In US4312874A, “Antibacterial compounds, processes for their preparation and compositions containing them” (Beecham Group Limited, priority 1979, dated 1982):
# Where two headings read alike, the source gives them in different places.
# Columns and labels:
# E. coli NCTC 10418 [1] = test: MIC by serial dilution in nutrient agar with 5% chocolated horse blood; assay type: cell-based; settings: Escherichia coli, NCTC10418
# P. mirabilis 889 = test: as above; assay type: cell-based; settings: Proteus mirabilis
# K. aerogenes A = test: as above; assay type: cell-based; settings: Klebsiella aerogenes
# Ps. aeruginosa 10662 = test: as above; assay type: cell-based; settings: Pseudomonas aeruginosa
# [2] = test system: Pasteurella multocida 1633; test: as above; assay type: cell-based; settings: Table 1
# [3] = test system: Haemophilus influenzae Q1; test: as above; assay type: cell-based; settings: Table 1
# [4] = test system: Haemophilus influenzae Wy21; test: as above; assay type: cell-based
# [5] = test system: Neisseria catarrhalis 1502; test: as above; assay type: cell-based
# Bacillus subtilis 6633 = test: as above; assay type: cell-based; settings: Table 1
# Staph. aureus Oxford = test: as above; assay type: cell-based; settings: Staphylococcus aureus; Table 1
# Staph. aureus Russell = test: as above; assay type: cell-based; settings: Staphylococcus aureus; Table 1
# Staph. aureus W2827 = test: as above; assay type: cell-based; settings: Staphylococcus aureus, Table 1
# Strep. faecalis = test: as above; assay type: cell-based; settings: Enterococcus faecalis
# Strep. pyogenes B 2788 = test: as above; assay type: cell-based; settings: Streptococcus pyogenes, B2788; Table 1
# Strep. pyogenes C 2761 = test: as above; assay type: cell-based; settings: Streptococcus pyogenes, C2761; Table 1
# M. suipneumoniae JF 435 = test: in vitro MIC by serial dilution in Friis modified agarose medium; assay type: cell-based; settings: Mesomycoplasma hyopneumoniae, JF435; Table 3
# M. siupneumoniae HK(2) = test: as above; assay type: cell-based; settings: Table 3
# M. suipneumoniae Str. 11 = test: as above; assay type: cell-based; settings: Mesomycoplasma hyopneumoniae, Table 3
# [6] = test system: M. suipneumoniae J2206/183b; test: as above; assay type: cell-based; settings: Mesomycoplasma hyopneumoniae, Table 3
# M. suipneumoniae LABER = test: as above; assay type: cell-based; settings: Mesomycoplasma hyopneumoniae; Table 3
# M. suipneumoniae UCD 1 = test: as above; assay type: cell-based; settings: Mesomycoplasma hyopneumoniae, UCD1; Table 3
# M. suipneumoniae TAM 6N = test: as above; assay type: cell-based; settings: Mesomycoplasma hyopneumoniae, TAM6N; Table 3
# [7] = test system: M. suipneumoniae ATCC 25095; test: as above; assay type: cell-based; settings: Mesomycoplasma hyopneumoniae, ATCC25095; Table 3
# [8] = test system: M. suipneumoniae NCTC 10110; test: as above; assay type: cell-based; settings: Mesomycoplasma hyopneumoniae, NCTC10110; Table 3
# M. hyosnoviae ATCC 25591 = test: as above; assay type: cell-based; settings: Table 3
# M. dispar NCTC 10125 = test: as above; assay type: cell-based
# M. gallisepticum S6 = test: as above; assay type: cell-based; settings: Mycoplasmoides gallisepticum, Table 3
# [9] = Serum binding by ultrafiltration; assay type: in vitro ADME; settings: pig, 8 mcg/ml, read-out: % Bound to Pig Serum (converted)
# Description: Serum binding was assessed by ultrafiltration of procine serum containing compounds at 8 mcg/ml, and through an Amicon CF50A ultrafiltration cone. Separation of ultrafiltrate was achieved by centrifugation. Unbound concentrations of compound were measured in the ultrafiltrate by microbiological assay (B. subtilis ATCC 6633) against standards prepared in saline.
# E. coli NCTC 10418 [10] = test: MIC by agar dilution, veterinary bacteria; settings: Escherichia coli, NCTC10418, 24 h
# E. coli E1 = test: MIC by agar dilution, veterinary bacteria; settings: Escherichia coli, E1, 24 h
# S.dublin S7 = test: MIC by agar dilution, veterinary bacteria; settings: Salmonella enterica, S7, 24 h
# S. typhimurium S18 = test: MIC by agar dilution, veterinary bacteria; settings: Salmonella enterica, 24 h
# Bord. bronchiseptica B09 = test: MIC by agar dilution, veterinary bacteria; settings: Bordetella bronchiseptica, B09, 24 h
# Past. multocida PA2 = test: MIC by agar dilution, veterinary bacteria; settings: Pasteurella multocida, PA2, 24 h
# Past. haemolytica PA5 = test: MIC by agar dilution, veterinary bacteria; settings: Mannheimia haemolytica, PA5, 24 h
# [11] = test system: Erysipelothrix rhusiopathiae NCTC 8163; test: MIC by agar dilution, veterinary bacteria; settings: NCTC8163, 24 h
# [12] = test system: Corynebacterium pyogenes CY1; test: MIC by agar dilution, veterinary bacteria; settings: CY1, 24 h
# [13] = test system: Staph. aureus 152 (pen sens); test: MIC by agar dilution, veterinary bacteria; settings: Staphylococcus aureus, 24 h
# [14] = test system: Strep. suis (group D) SPS11; test: MIC by agar dilution, veterinary bacteria; settings: Streptococcus suis, 24 h
# Strep. uberis SPU1 = test: MIC by agar dilution, veterinary bacteria; settings: Streptococcus uberis, SPU1, 24 h
# Strep. dysgalactiae SPD1 = test: MIC by agar dilution, veterinary bacteria; settings: Streptococcus dysgalactiae, SPD1, 24 h
smiles,measurement,setting,value
"CCC(=O)C=C(C)CC1OCC(CC2OC2C(C)C(C)O)C(O)C1O [Example 2, 1-[3R,4R-Dihydroxy-5S-(2S,3S-epoxy-5-S-hydroxy-4S-methylhexyl)tetrahydropyran-2S-yl]-2-methylhex-2E-en-4-one]",MIC,E. coli NCTC 10418 [1],> 50 µg/mL
same,MIC,P. mirabilis 889,> 50 µg/mL
same,MIC,K. aerogenes A,> 50 µg/mL
same,MIC,Ps. aeruginosa 10662,> 50 µg/mL
same,MIC,[2],2.5 µg/mL
same,MIC,[3],0.2 µg/mL
same,MIC,[4],0.5 µg/mL
same,MIC,[5],0.5 µg/mL
same,MIC,Bacillus subtilis 6633,2.5 µg/mL
same,MIC,Staph. aureus Oxford,1.2 µg/mL
same,MIC,Staph. aureus Russell,2.5 µg/mL
same,MIC,Staph. aureus W2827,2.5 µg/mL
same,MIC,Strep. faecalis,> 50 µg/mL
same,MIC,Strep. pyogenes B 2788,25 µg/mL
same,MIC,Strep. pyogenes C 2761,25 µg/mL
same,MIC,M. suipneumoniae JF 435,5 µg/mL
same,MIC,M. siupneumoniae HK(2),2.5 µg/mL
same,MIC,M. suipneumoniae Str. 11,2.5 µg/mL
same,MIC,[6],5 µg/mL
same,MIC,M. suipneumoniae LABER,2.5 µg/mL
same,MIC,M. suipneumoniae UCD 1,5 µg/mL
same,MIC,M. suipneumoniae TAM 6N,2.5 µg/mL
same,MIC,[7],2.5 µg/mL
same,MIC,[8],5 µg/mL
same,MIC,M. hyosnoviae ATCC 25591,2.5 µg/mL
same,MIC,M. dispar NCTC 10125,0.5 µg/mL
same,MIC,M. gallisepticum S6,> 10 µg/mL
same,fraction unbound,[9],0.739
same,MIC,E. coli NCTC 10418 [10],> 40 µg/mL
same,MIC,E. coli E1,> 40 µg/mL
same,MIC,S.dublin S7,> 40 µg/mL
same,MIC,S. typhimurium S18,> 40 µg/mL
same,MIC,Bord. bronchiseptica B09,40 µg/mL
same,MIC,Past. multocida PA2,0.312 µg/mL
same,MIC,Past. haemolytica PA5,5 µg/mL
same,MIC,[11],> 40 µg/mL
same,MIC,[12],> 40 µg/mL
same,MIC,[13],0.312 µg/mL
same,MIC,[14],> 40 µg/mL
same,MIC,Strep. uberis SPU1,5 µg/mL
same,MIC,Strep. dysgalactiae SPD1,20 µg/mL
"CC(=O)C=C(C)CC1OCC(CC2OC2C(C)C(C)O)C(O)C1O [Example 1, 1-[3R,4R-Dihydroxy-5S-(2S,3S-epoxy-5S-hydroxy-4S-methylhexyl)-2,3,5,6-tetrahydropyran-2-S-yl]-2-methylpent-2E-en-4-one]",MIC,"E. coli NCTC 10418 [1]; Table 1, read-out: MIC",> 100 µg/mL
same,MIC,"P. mirabilis 889; Table 1, read-out: MIC",50 µg/mL
same,MIC,"K. aerogenes A; Table 1, read-out: MIC",> 100 µg/mL
same,MIC,"Ps. aeruginosa 10662; Table 1, read-out: MIC",> 100 µg/mL
same,MIC,[2],5 µg/mL
same,MIC,[3],0.5 µg/mL
same,MIC,"[4]; Table 1, read-out: MIC",1 µg/mL
same,MIC,"[5]; Table 1, read-out: MIC",0.2 µg/mL
same,MIC,Bacillus subtilis 6633,5 µg/mL
same,MIC,Staph. aureus Oxford,1 µg/mL
same,MIC,Staph. aureus Russell,5 µg/mL
same,MIC,Staph. aureus W2827,> 100 µg/mL
same,MIC,"Strep. faecalis; Table 1, read-out: MIC",> 100 µg/mL
same,MIC,Strep. pyogenes B 2788,50 µg/mL
same,MIC,Strep. pyogenes C 2761,100 µg/mL
same,MIC,M. suipneumoniae JF 435,10 µg/mL
same,MIC,M. siupneumoniae HK(2),> 10 µg/mL
same,MIC,M. suipneumoniae Str. 11,5 µg/mL
same,MIC,[6],> 10 µg/mL
same,MIC,M. suipneumoniae LABER,5 µg/mL
same,MIC,M. suipneumoniae UCD 1,> 10 µg/mL
same,MIC,M. suipneumoniae TAM 6N,> 10 µg/mL
same,MIC,[7],10 µg/mL
same,MIC,[8],> 10 µg/mL
same,MIC,M. hyosnoviae ATCC 25591,5 µg/mL
same,MIC,"M. dispar NCTC 10125; Table 3, read-out: MIC",2.5 µg/mL
same,MIC,M. gallisepticum S6,> 10 µg/mL
same,fraction unbound,[9],0.852
same,MIC,E. coli NCTC 10418 [10],> 80 µg/mL
same,MIC,E. coli E1,> 80 µg/mL
same,MIC,S.dublin S7,> 80 µg/mL
same,MIC,S. typhimurium S18,> 80 µg/mL
same,MIC,Bord. bronchiseptica B09,20 µg/mL
same,MIC,Past. multocida PA2,5 µg/mL
same,MIC,Past. haemolytica PA5,10 µg/mL
same,MIC,[11],> 80 µg/mL
same,MIC,[12],> 80 µg/mL
same,MIC,[13],10 µg/mL
same,MIC,[14],> 80 µg/mL
same,MIC,Strep. uberis SPU1,20 µg/mL
same,MIC,Strep. dysgalactiae SPD1,80 µg/mL
"CCCCC(=O)C=C(C)CC1OCC(CC2OC2C(C)C(C)O)C(O)C1O [Example 3, 1-[3R,4R-Dihydroxy-5S-(2S,3S-epoxy-5S-hydroxy-4S-methylhexyl)tetrahydropyran-2S-yl]-2-methyloct-2E-en-4-one]",MIC,"E. coli NCTC 10418 [1]; Table 1, read-out: MIC",> 100 µg/mL
same,MIC,"P. mirabilis 889; Table 1, read-out: MIC",100 µg/mL
same,MIC,"K. aerogenes A; Table 1, read-out: MIC",> 100 µg/mL
same,MIC,"Ps. aeruginosa 10662; Table 1, read-out: MIC",> 100 µg/mL
same,MIC,[2],0.5 µg/mL
same,MIC,[3],0.2 µg/mL
same,MIC,"[4]; Table 1, read-out: MIC",0.2 µg/mL
same,MIC,"[5]; Table 1, read-out: MIC",0.5 µg/mL
same,MIC,Bacillus subtilis 6633,0.5 µg/mL
same,MIC,Staph. aureus Oxford,1 µg/mL
same,MIC,Staph. aureus Russell,1 µg/mL
same,MIC,Staph. aureus W2827,2.5 µg/mL
same,MIC,"Strep. faecalis; Table 1, read-out: MIC",> 100 µg/mL
same,MIC,Strep. pyogenes B 2788,2.5 µg/mL
same,MIC,Strep. pyogenes C 2761,2.5 µg/mL
same,MIC,M. suipneumoniae JF 435,1 µg/mL
same,MIC,M. siupneumoniae HK(2),1 µg/mL
same,MIC,M. suipneumoniae Str. 11,0.5 µg/mL
same,MIC,[6],1 µg/mL
same,MIC,M. suipneumoniae LABER,0.5 µg/mL
same,MIC,M. suipneumoniae UCD 1,1 µg/mL
same,MIC,M. suipneumoniae TAM 6N,1 µg/mL
same,MIC,[7],1 µg/mL
same,MIC,[8],1 µg/mL
same,MIC,M. hyosnoviae ATCC 25591,0.25 µg/mL
same,MIC,"M. dispar NCTC 10125; Table 3, read-out: MIC",0.25 µg/mL
same,MIC,M. gallisepticum S6,> 10 µg/mL
same,fraction unbound,[9],0.469
same,MIC,E. coli NCTC 10418 [10],> 80 µg/mL
same,MIC,E. coli E1,> 80 µg/mL
same,MIC,S.dublin S7,> 80 µg/mL
same,MIC,S. typhimurium S18,> 80 µg/mL
same,MIC,Bord. bronchiseptica B09,40 µg/mL
same,MIC,Past. multocida PA2,1.25 µg/mL
same,MIC,Past. haemolytica PA5,20 µg/mL
same,MIC,[11],> 80 µg/mL
same,MIC,[12],> 80 µg/mL
same,MIC,[13],2.5 µg/mL
same,MIC,[14],> 80 µg/mL
same,MIC,Strep. uberis SPU1,2.5 µg/mL
same,MIC,Strep. dysgalactiae SPD1,10 µg/mL
